For the experiment, the target named is T1, human SGLT1 (Homo sapiens, UniProt P13866).
T1 construct: expressed in transfected cells
T1 sequence (P13866 1-664): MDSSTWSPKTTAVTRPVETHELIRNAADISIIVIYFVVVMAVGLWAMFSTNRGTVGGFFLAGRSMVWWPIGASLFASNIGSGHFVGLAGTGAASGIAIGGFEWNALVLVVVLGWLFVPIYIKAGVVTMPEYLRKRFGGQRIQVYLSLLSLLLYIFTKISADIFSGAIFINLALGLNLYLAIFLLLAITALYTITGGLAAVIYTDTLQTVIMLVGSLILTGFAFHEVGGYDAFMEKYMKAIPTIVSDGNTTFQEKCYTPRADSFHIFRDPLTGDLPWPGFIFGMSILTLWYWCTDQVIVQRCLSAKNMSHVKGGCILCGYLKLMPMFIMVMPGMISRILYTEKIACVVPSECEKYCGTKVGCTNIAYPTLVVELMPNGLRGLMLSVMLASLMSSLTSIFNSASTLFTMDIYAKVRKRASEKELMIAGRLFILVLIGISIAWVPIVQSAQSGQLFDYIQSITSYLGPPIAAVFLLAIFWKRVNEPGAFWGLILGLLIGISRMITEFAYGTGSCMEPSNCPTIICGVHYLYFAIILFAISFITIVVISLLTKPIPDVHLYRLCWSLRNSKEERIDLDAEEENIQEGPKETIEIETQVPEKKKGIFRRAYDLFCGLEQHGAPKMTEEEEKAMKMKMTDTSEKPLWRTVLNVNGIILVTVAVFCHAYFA
The experiment in a line: Determination of SGLT1 inhibiting activity using human SGLT1 expressing cell ([14C]-α-methyl-D-glucopyranoside uptake). Format: cell-based. The note with it: HEK-SGLT1 cells, 1 mM [14C]-α-methyl-D-glucopyranoside, 37° C., 30 min. The protocol: Determination of SGLT1 Inhibiting Activity Using Human SGLT1 Expressing Cell
1) Preparation of Vector Expressing Human SGLT1 cDNA in Animal Cell
Amplification was performed by PCR using human SGLT1 cDNA clone (Origene: Clone Number, TC119918; GenBank accession number, NM 000343) as a template. The sense oligonucleotide primer for PCR was 5′-[…]-3′ (Primer 1: SEQ ID NO: 1 in the sequence listing),
and the antisense oligonucleotide primer was 5′-[…]-3′ (Primer 2: SEQ ID NO: 2 in the sequence listing).
The PCR product was subjected to agarose electrophoresis, then a target DNA fragment was recovered from a single band corresponding to 2013 bases, digested with restriction enzymes HindIII and XhoI, and introduced into the HindIII/XhoI site of vector pCMV-Script (Stratagene) to obtain SGLT1 expressing plasmid pCMV-SGLT1. A HindIII/XhoI fragment was excised from pCMV-SGLT1 and introduced into the BamHI/XhoI site of pENTR1A (Gateway, Invitrogen) to prepare pENTR-SGLT1. Retrovirus vector pLPCX (Clontech) into which Gateway Vector Conversion System Cassette A (Invitrogen) was introduced was used as the destination plasmid to prepare SGLT1 expressing retrovirus vector pLPCX-SGLT1.
2) Establishment of Human SGLT1 Expressing Cell
The retrovirus pLPCX-SGLT1 obtained in 1) was transfected into integrin αvβ3 expressing HEK-293 cells and, the cells were treated with antibiotic G418 (brand name, Geneticin: Invitrogen) and puromycin (Clontech) to obtain HEK-SGLT1 cells stably expressing the target vector having resistance. The stably expressing cells were cultured and maintained in DMEM medium containing […] G418, […] puromycin, 3 mM KGT-1075, and 10% FBS.
3) Determination of SGLT1 Inhibiting Activity
HEK-SGLT1 cells were suspended at a density of 10^6 cells/mL in DMEM medium containing […] G418, 1 mg/ml puromycin, and 10% FBS, and 100 μL was seeded in each well of a type 1 collagen-coated 96-well culture plate (Corning). On the following day, the medium was replaced with a sugar uptake buffer (10 mM HEPES [pH 7.5], 5 mM Tris-HCl [pH 7.5], 140 mM NaCl, 2 mM KCl, 1 mM CaCl2, 1 mM MgCl2), and the cells were cultured with 1 mM [^14C]-α-methyl-D-glucopyranoside (0.1 mCi) and the test compound at 37° C. for 30 min and then washed 3 times with a washing buffer (10 mM HEPES [pH 7.5], 5 mM Tris-HCl [pH 7.5], 140 mM choline chloride, 2 mM KCl, 1 mM CaCl2, 1 mM MgCl2). 100 μL of liquid scintillation cocktail (brand name, Supermix: Perkin-Elmer) was added to each well of the 96-well plate and stirred for 10 min, and then radioactivity was determined with micro β (Perkin-Elmer), a type of liquid scintillation counter. The value as the sugar uptake activity was obtained by deducting the radioactivity in the presence of an excess amount of an SGLT1 inhibiting compound as the background from each measured value, the inhibition rate (%) was calculated from the control sugar uptake activity obtained without using a test compound and the sugar uptake activity obtained using a test compound having a predetermined the concentration, and concentrations of the test compound at which the sugar uptake activity was inhibited by 50% were assessed.

In turn, `COc1ccc(Cc2ccc(CO)cc2O[C@@H]2O[C@H]([C@@H](C)O)[C@@H](O)[C@H](O)[C@H]2O)cc1` [Example 9, 2-(4-Methoxybenzyl)-5-hydroxymethylphenyl 7-deoxy-D-glycero-β-D-gluco-heptopyranoside] had a concentration for half-maximal inhibition (IC50) of 0.054 µM.

Turning to `COc1ccc(Cc2cc(CO)cnc2O[C@@H]2O[C@H]([C@@H](C)O)[C@@H](O)[C@H](O)[C@H]2O)cc1` [Example 38, 3-(4-Methoxybenzyl)-5-hydroxymethylpyridin-2-yl 7-deoxy-D-glycero-β-D-gluco-heptopyranoside], half-maximal inhibition (IC50) was put at 0.207 µM.

Regarding `CCc1ccc(Cc2ccc(N)cc2O[C@@H]2O[C@H](C(C)O)[C@@](C)(O)[C@H](O)[C@H]2O)cc1` (stereo partly drawn) [Example 41, 5-Amino-2-(4-ethylbenzyl)phenyl 4-C-methyl-7-deoxy-glycero-β-D-gluco-heptapyranoside], the IC50 stood at 0.087 µM.

In turn, `COc1ccc(Cc2c(Cl)cccc2O[C@@H]2O[C@H]([C@@H](C)O)[C@@H](O)[C@H](O)[C@H]2O)cc1` [Example 42, 3-Chloro-2-(4-methoxybenzyl)phenyl 7-deoxy-D-glycero-β-D-gluco-heptopyranoside] returned an IC50 of 0.063 µM.

In turn, `COc1ccc(Cc2c(Cl)cc(C)cc2O[C@@H]2O[C@H]([C@@H](C)O)[C@@H](O)[C@H](O)[C@H]2O)cc1` [Example 43, 3-Chloro-5-methyl-2-(4-methoxybenzyl)phenyl 7-deoxy-D-glycero-β-D-gluco-heptopyranoside] came in with a 50% inhibitory concentration (IC50) of 0.212 µM.

On to `COc1ccc(Cc2c(Cl)cc(CO)cc2O[C@@H]2O[C@H]([C@@H](C)O)[C@@H](O)[C@H](O)[C@H]2O)cc1` [Example 44, 3-Chloro-5-hydroxymethyl-2-(4-methoxybenzyl)phenyl 7-deoxy-D-glycero-β-D-gluco-heptopyranoside], for which the IC50 is 0.029 µM.

In turn, `CCOc1ccc(Cc2c(Cl)cc(CO)cc2O[C@@H]2O[C@H]([C@@H](C)O)[C@@H](O)[C@H](O)[C@H]2O)cc1` [Example 45, 3-Chloro-2-(4-ethoxybenzyl)-5-hydroxymethyl-phenyl 7-deoxy-D-glycero-β-D-gluco-heptopyranoside] came in with an IC50 of 0.118 µM.

In turn, `CCOc1ccc(Cc2c(F)cc(CO)cc2O[C@@H]2O[C@H]([C@@H](C)O)[C@@H](O)[C@H](O)[C@H]2O)cc1` [Example 46, 2-(4-Ethoxybenzyl)-3-fluoro-5-hydroxymethyl-phenyl 7-deoxy-D-glycero-β-D-gluco-heptopyranoside] registered a half-maximal inhibitory concentration (IC50) of 0.056 µM.

The compound `CCc1ccc(Cc2c(F)cc(CO)cc2O[C@@H]2O[C@H]([C@@H](C)O)[C@@H](O)[C@H](O)[C@H]2O)cc1` [Example 47, 2-(4-Ethylbenzyl)-3-fluoro-5-hydroxymethyl-phenyl 7-deoxy-D-glycero-β-D-gluco-heptopyranoside] yielded an IC50 of 0.066 µM.

Compound `COc1ccc(Cc2c(Cl)cc(CO)cc2O[C@@H]2O[C@H]([C@H](C)O)[C@@H](O)[C@H](O)[C@H]2O)cc1` [Example 57, 3-Chloro-5-hydroxymethyl-2-(4-methoxybenzyl)phenyl 7-deoxy-L-glycero-β-D-gluco-heptopyranoside] had an IC50 of 0.217 µM. Against the preceding compound, the IC50 is about 3.3-fold higher.

In the case of `C[C@@H](O)[C@H]1O[C@@H](Oc2cc(CO)ccc2Cc2ccc(OC3CC3)cc2)[C@H](O)[C@@H](O)[C@@H]1O` [Example 60, 2-(4-Cyclopropyloxybenzyl)-5-hydroxymethylphenyl 7-deoxy-D-glycero-β-D-gluco-heptopyranoside], the IC50 is 0.081 µM.

Consider `C[C@@H](O)[C@H]1O[C@@H](Oc2cc(CO)ccc2Cc2ccc(C3CC3)cc2)[C@H](O)[C@@H](O)[C@@H]1O` [Example 62, 2-(4-Cyclopropylbenzyl)-5-hydroxymethylphenyl 7-deoxy-D-glycero-β-D-gluco-heptopyranoside], for which the midpoint of inhibition, the IC50, lay at 0.155 µM.

For the compound `C[C@@H](O)[C@H]1O[C@@H](Oc2cc(CO)cc(F)c2Cc2ccc(OC3CC3)cc2)[C@H](O)[C@@H](O)[C@@H]1O` [Example 63, 2-(4-Cyclopropoxybenzyl)-3-fluoro-5-hydroxymethyl-phenyl 7-deoxy-D-glycero-β-D-gluco-heptopyranoside], the IC50 worked out at 0.068 µM.

As to `CSc1ccc(Cc2ccc(CO)cc2O[C@@H]2O[C@H]([C@@H](C)O)[C@@H](O)[C@H](O)[C@H]2O)cc1` [Example 66, 5-Hydroxymethyl-2-(4-methylsulfanylbenzyl)phenyl 7-deoxy-D-glycero-β-D-gluco-heptopyranoside], the midpoint of inhibition, the IC50, lay at 0.214 µM.

Regarding `CCc1ccc(Cc2ccc(CCO)cc2O[C@@H]2O[C@H]([C@@H](C)O)[C@@H](O)[C@H](O)[C@H]2O)cc1` [Example 67, 2-(4-Ethylbenzyl)-5-(2-hydroxyethyl)phenyl 7-deoxy-D-glycero-β-D-gluco-heptopyranoside], it took 0.491 µM to reach half-maximal inhibition (IC50).

As to `C[C@@H](O)[C@H]1O[C@@H](Oc2cc(CO)ccc2Cc2ccc(CCCO)cc2)[C@H](O)[C@@H](O)[C@@H]1O` [Example 68, 5-Hydroxymethyl-2-[4-(3-hydroxypropyl)benzyl]phenyl 7-deoxy-D-glycero-β-D-gluco-heptopyranoside], the IC50 is 0.123 µM.

Consider `COc1ccc(Cc2c(C)cc(C)cc2O[C@@H]2O[C@H]([C@@H](C)O)[C@@H](O)[C@H](O)[C@H]2O)cc1F` [Example 69, 2-(3-Fluoro-4-methoxybenzyl)-3,5-dimethylphenyl 7-deoxy-D-glycero-β-D-gluco-heptopyranoside], for which the IC50 was found to be 0.231 µM.

Take `Cc1cc(C)c(Cc2ccc(CCO)cc2)c(O[C@@H]2O[C@H]([C@@H](C)O)[C@@H](O)[C@H](O)[C@H]2O)c1` [Example 70, 2-[4-(2-Hydroxyethyl)benzyl]-3,5-dimethylphenyl 7-deoxy-D-glycero-β-D-gluco-heptopyranoside]: the half-maximal inhibitory concentration (IC50) stood at 0.199 µM.

In turn, `CCCOc1ccc(Cc2c(F)cc(CO)cc2O[C@@H]2O[C@H]([C@@H](C)O)[C@@H](O)[C@H](O)[C@H]2O)cc1` [Example 74, 3-Fluoro-5-hydroxymethyl-2-(4-propoxybenzyl)phenyl 7-deoxy-D-glycero-β-D-gluco-heptopyranoside] came in with an IC50 of 0.281 µM.

Turning to `CC(C)Oc1ccc(Cc2c(F)cc(CO)cc2O[C@@H]2O[C@H]([C@@H](C)O)[C@@H](O)[C@H](O)[C@H]2O)cc1` [Example 75, 3-Fluoro-5-hydroxymethyl-2-(4-isopropoxybenzyl)phenyl 7-deoxy-D-glycero-β-D-gluco-heptopyranoside], inhibition was half-maximal at 0.269 µM (IC50).

Compound `COc1ccc(Cc2c(C)cc(C)cc2O[C@@H]2O[C@H]([C@@H](C)O)[C@@H](O)[C@H](O)[C@H]2O)cc1` [Example 77, 3,5-Dimethyl-2-(4-methoxybenzyl)phenyl 7-deoxy-D-glycero-β-D-gluco-heptopyranoside] showed an IC50 of 0.252 µM.

`COc1ccc(Cc2ccc(CO)cc2O[C@@H]2O[C@H]([C@@H](C)O)[C@@H](O)[C@H](O)[C@H]2O)cc1F` [Example 78, 2-(3-Fluoro-4-methoxybenzyl)-5-hydroxymethylphenyl 7-deoxy-D-glycero-β-D-gluco-heptopyranoside] came in with a 50% inhibitory concentration (IC50) of 0.234 µM.

Source of the values: US20090137499A1, “BENZYLPHENYL GLUCOPYRANOSIDE DERIVATIVE” (priority 2006, published 2009).
